Test results as given in ChEMBL document CHEMBL1201862, “PubChem BioAssay data set” (2004).
Values belong to the compound of their own block, whether it stands above or below them. Active and inactive are the calls of the source.

Tests used:
[1] = target: Luciferin 4-monooxygenase (Photinus pyralis, UniProt P08659); test: Counter Screen for Luciferase-based Assay Positives. [Related pubchem assays: 620, 618, 411 ]
HT-1080 = test: cytotoxicity in HT1080 fibrosarcoma cells, cell-based, fluorescence readout (AID 620); format: functional; settings: Homo sapiens
[2] = NIH-3T3 fibroblast cytotoxicity, dose response, cytotoxicity control, cell-based, fluorescence, Alamar Blue, secondary assay (AID 2327); format: functional;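 also: NIH-3T3 mouse fibroblasts cultured with fluconazole at 8 µg/mL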
[3] = C. albicans growth with fluconazole, confirmation, fluorescence, retest (AID 2467); format: functional, cell-based
[4] = inhibitors of intracellular T. cruzi replication, confirmation, NIH3T3 host cells, beta-gal luminescence (AID 2044); format: functional, cell-based;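 also: intracellular parasites grown in NIH/3T3 mouse fibroblasts as host cells; luminescent beta-galactosidase reporter signal from transgenic T. cruzi replicating inside host cells; inhibitors lower the luminescence signal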
[5] = cytotoxicity toward NIH3T3 fibroblasts, dose response, counter-screen, cell-based, ATP luminescence, mouse fibroblasts (AID 2010); format: functional;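 also: cells exposed to compound for about 90 hours before reading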
INS1 = test: beta cell apoptosis inhibitors, cytokine rescue, dose response, luminescence, retest (AID 449756); format: functional, cell-based; settings: Rattus norvegicus;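 also: cell death triggered by IL-1 beta plus TNF-alpha plus IFN-gamma mixture; protective hits raise ATP signal compared with cytokine alone wells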
[6] = THP-1 cell cytotoxicity, dose response, cytotoxicity control for Vif-APOBEC3G degradation inhibitor project, THP-1 cells (AID 1117359); format: functional; settings: Human immunodeficiency virus 1, THP-1
[7] = P. falciparum 3D7-ScDHODH growth inhibitors, dose response, SYBR Green, dry powder samples (AID 1159570); format: functional, cell-based;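 also: parasite growth measured after 72 hours of compound exposure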
[8] = P. falciparum ATP4 D1247Y mutant growth inhibitors, dose response, NITD609-resistant line, SYBR Green, dry powder (AID 1159571); format: functional, cell-based;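 also: parasites synchronized at ring stage by sorbitol before testing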
[9] = P. falciparum Dd2 growth inhibitors, dose response, SYBR Green, cherry-picked samples (AID 1159567); format: functional, cell-based
[10] = P. falciparum Dd2 growth inhibitors, dose response, SYBR Green, dry powder samples (AID 1159566); format: functional, cell-based;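 also: potency for growth inhibition with lower SYBR green DNA signal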
[11] = target: T1, Mannose-6-phosphate isomerase (Homo sapiens, UniProt P34949); test: human PMI inhibitors, high substrate, primary screen, biochemical, fluorescence intensity, high mannose 6-phosphate (AID 1220)
T1 sequence (P34949 whole entry): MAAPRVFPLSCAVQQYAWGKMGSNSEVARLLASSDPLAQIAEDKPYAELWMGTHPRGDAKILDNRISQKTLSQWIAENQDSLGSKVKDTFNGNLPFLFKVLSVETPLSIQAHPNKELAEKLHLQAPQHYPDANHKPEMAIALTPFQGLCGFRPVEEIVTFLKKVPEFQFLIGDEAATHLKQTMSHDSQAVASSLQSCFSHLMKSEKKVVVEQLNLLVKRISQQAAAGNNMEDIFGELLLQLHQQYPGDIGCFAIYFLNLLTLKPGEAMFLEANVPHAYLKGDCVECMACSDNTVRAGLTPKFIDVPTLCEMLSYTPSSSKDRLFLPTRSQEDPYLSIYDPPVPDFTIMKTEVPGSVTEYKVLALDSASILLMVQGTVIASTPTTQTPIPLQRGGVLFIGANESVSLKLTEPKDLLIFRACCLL

[12] = target: T2, Rac GTPase-activating protein 1 (Homo sapiens, UniProt Q9H0H5); test: MgcRacGAP GTPase-activating activity inhibitors, confirmation, biochemical, ADP Hunter fluorescence, primary and confirmatory (AID 624330); format: functional
T2 sequence (Q9H0H5 whole entry): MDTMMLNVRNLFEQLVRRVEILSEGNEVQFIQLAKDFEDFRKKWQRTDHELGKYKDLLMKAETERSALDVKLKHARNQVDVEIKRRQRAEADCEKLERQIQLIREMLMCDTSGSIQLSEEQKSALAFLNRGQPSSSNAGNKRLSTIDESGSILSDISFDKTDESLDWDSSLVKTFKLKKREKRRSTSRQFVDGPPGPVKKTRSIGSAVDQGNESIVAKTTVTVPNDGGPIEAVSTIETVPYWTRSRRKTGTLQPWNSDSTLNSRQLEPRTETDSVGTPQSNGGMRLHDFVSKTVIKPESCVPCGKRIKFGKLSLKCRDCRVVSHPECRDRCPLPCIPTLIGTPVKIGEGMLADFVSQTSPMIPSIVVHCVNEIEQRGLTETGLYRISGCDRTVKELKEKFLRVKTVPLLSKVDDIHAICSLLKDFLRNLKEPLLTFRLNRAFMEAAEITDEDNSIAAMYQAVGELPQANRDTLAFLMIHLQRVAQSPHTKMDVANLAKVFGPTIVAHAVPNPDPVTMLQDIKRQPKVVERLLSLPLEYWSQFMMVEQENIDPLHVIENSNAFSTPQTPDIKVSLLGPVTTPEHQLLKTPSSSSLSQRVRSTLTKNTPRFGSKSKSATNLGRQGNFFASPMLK

[13] = target: T3, Short transient receptor potential channel 4 (Mus musculus, UniProt Q9QUQ5); test: mouse TRPC4 channel activators, dose response, cell-based, HEK293 TRPC4/mu-opioid, Fluo-4 calcium (AID 434937); format: functional
T3 sequence (Q9QUQ5 whole entry): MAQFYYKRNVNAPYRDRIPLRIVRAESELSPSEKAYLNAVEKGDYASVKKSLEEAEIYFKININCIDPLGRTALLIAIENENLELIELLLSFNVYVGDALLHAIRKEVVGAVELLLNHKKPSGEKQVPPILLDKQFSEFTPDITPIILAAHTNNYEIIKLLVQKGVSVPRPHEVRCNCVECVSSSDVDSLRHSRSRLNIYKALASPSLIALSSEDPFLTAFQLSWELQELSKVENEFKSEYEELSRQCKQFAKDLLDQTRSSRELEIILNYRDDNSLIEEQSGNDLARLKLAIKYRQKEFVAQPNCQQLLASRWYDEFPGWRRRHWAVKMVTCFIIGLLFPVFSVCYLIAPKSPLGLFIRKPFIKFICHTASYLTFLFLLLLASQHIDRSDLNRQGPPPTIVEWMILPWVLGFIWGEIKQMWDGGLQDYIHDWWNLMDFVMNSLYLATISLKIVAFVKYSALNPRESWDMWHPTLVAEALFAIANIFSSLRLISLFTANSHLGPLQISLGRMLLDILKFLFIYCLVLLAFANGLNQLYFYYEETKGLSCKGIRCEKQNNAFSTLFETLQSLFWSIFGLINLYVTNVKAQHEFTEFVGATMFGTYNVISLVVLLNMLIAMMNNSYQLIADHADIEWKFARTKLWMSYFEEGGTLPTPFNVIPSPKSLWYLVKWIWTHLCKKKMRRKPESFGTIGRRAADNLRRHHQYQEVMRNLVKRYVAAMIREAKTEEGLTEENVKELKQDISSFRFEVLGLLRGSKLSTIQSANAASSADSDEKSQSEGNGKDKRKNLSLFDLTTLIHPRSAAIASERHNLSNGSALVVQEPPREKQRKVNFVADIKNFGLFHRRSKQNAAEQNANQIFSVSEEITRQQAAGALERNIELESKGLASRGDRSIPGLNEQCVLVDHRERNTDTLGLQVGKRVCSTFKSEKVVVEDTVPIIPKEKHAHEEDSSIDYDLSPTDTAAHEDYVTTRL

[14] = HepG2 cell cytotoxicity, dose response, cytotoxicity control, ATP luminescence, cherry-pick, activator set 2 (AID 1053143); format: functional, cell-based
[15] = target: Mitogen-activated protein kinase 10 (Homo sapiens, UniProt P53779); test: Dose response biochemical screening assay for inhibitors of c-Jun N-Terminal Kinase 3 (JNK3). [Related pubchem assays: 746 ]
Sequence of Mitogen-activated protein kinase 10 (P53779 whole entry): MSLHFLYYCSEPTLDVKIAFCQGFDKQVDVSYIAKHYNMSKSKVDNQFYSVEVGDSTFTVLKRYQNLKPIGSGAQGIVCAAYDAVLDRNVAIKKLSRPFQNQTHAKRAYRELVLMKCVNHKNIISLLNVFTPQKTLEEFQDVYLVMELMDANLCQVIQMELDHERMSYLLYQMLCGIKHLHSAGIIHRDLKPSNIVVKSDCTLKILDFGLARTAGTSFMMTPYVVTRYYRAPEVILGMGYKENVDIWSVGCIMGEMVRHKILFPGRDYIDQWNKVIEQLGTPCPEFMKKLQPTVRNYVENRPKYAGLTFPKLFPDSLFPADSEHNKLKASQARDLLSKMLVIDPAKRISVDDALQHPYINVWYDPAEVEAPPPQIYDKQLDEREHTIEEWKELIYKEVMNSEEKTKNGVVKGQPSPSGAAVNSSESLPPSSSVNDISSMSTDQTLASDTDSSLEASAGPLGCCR

[16] = cytotoxicity in OVCAR8 ovarian cancer cells, dose response, PAX8 project, cell-based, plate reader, dry powder samples (AID 743197); format: functional; settings: OVCAR-8
Paired box protein Pax-8 = Paired box protein Pax-8 (Homo sapiens, UniProt Q06710); test: inhibitors of PAX8-driven TPO luciferase reporter, dose response, RMG-I cells, cherry-pick (AID 687027); format: functional, cell-based;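 also: luciferase reporter driven by Pax8 target thyroperoxidase promoter measured by SteadyGlo luminescence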
Sequence of Paired box protein Pax-8 (Q06710 whole entry): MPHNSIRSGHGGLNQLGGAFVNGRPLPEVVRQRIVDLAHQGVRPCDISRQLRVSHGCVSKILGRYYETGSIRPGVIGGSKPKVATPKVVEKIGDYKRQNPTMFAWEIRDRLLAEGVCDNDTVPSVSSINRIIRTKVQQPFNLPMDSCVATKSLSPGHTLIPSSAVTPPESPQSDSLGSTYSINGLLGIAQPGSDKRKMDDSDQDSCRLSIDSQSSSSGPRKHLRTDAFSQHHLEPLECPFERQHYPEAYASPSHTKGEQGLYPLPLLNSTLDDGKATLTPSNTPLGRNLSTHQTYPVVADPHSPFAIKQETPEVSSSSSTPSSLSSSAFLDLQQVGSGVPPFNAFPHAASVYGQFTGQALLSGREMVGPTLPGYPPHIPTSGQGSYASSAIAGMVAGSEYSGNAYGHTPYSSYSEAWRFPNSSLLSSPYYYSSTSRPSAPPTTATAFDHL

Sequence of Luciferin 4-monooxygenase (P08659 whole entry): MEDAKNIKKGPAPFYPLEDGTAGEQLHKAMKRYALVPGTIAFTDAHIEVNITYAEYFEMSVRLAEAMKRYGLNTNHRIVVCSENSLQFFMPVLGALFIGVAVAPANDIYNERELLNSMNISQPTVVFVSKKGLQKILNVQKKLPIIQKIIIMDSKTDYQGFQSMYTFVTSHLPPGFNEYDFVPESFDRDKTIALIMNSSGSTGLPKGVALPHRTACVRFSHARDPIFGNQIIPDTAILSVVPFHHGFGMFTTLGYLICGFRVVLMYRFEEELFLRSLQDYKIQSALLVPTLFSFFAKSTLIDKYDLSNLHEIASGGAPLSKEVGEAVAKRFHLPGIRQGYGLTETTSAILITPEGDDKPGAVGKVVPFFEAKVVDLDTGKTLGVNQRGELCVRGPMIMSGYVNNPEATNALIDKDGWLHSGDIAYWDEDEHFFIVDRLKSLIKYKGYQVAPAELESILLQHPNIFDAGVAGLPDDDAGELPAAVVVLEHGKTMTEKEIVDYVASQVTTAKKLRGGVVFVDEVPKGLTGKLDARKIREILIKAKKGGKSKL

Compound: Cc1ccc(-n2nc3ccc(N)cc3n2)cc1
EC50 [1]: > 100 µM (not active) | EC50 (HT-1080): > 50 µM (not active)

Compound: CCN1/C(=C/c2cccc[n+]2C)Sc2ccc(OC)cc21
EC50 [2]: > 150 µM (inactive) | EC50 [3]: 0.961 µM (active) | EC50 [4]: < 0.1 µM (active) | EC50 [5]: > 60 µM (not active) | AC50 (INS1): 1.65 µM (active) | EC50 (cells): 0.084 µM (active)

Compound: COc1ccc(/C=C/CN2CCN(Cc3ccccc3)C(CCO)C2)cc1 (configuration not stated)
CC50 [6]: > 40 µM (active)

Compound: COc1ccc2c3c([nH]c2c1)[C@H](CO)N(C(=O)C1CCCCC1)CC31CCN(Cc2nccs2)CC1
AC50 [7]: 0.158 µM (active) | AC50 [8]: 0.198 µM (active) | AC50 [9]: 0.833 µM (active) | AC50 [10]: 0.183 µM (active)

IC50 [11]: > 50 µM (not active) | IC50 [12]: 139 µM (active)
Compound: CCOC(=O)c1sc(/N=C/c2c(O)ccc3ccccc23)cc1C

Compound: CN(CCOc1ccc(Br)cc1)CC(O)c1ccccc1 (configuration not stated)
EC50 [13]: 1.33 µM (active) | EC50 [4]: < 0.1 µM (active) | EC50 [5]: > 60 µM (not active) | EC50 (cells): 0.269 µM (active)

Compound: Oc1cc(-c2ccccc2)nc2nc3ccccc3n12
AC50 [14]: 26 µM (active) | IC50 [15]: > 31 µM (not active)

Compound: O=C(C[C@@H]1C[C@@H]2c3cc(NS(=O)(=O)c4ccc(F)cc4)ccc3O[C@@H]2[C@@H](CO)O1)NCc1ccc(-c2ccccc2)cc1
AC50 [16]: > 70 µM (inactive) | AC50 (Paired box protein Pax-8): 4.41 µM (active)

IC50 [15]: 42.3 µM (not active)
Compound: O=C1CCCc2nn(-c3ccccc3)c(-c3ccncc3)c21

Compound: CCCn1ncc(CN2CCCC(C(=O)c3cccc(OC)c3)C2)c1C (configuration not stated)
EC50 [4]: < 0.1 µM (active) | EC50 [5]: 26.4 µM (active) | EC50 (cells): 0.016 µM (active)
